Key:
[1] = molecular target: T1, CK1α (Homo sapiens, UniProt P48729+Q96SW2); assay: Western blot, degradation of substrate protein in hPBMCs; assay type: cell-based; conditions: 24 hours treatment, compounds at 50 nM and 500 nM (concentration behind the class not stated)
T1 construct: effects of the compounds of the present disclosure on the expression of target proteins in cells; endogenous in cells; host or cells: human PBMCs (Milecell Biotechnologies)

[2] = molecular target: T2, IKZF1 (Homo sapiens, UniProt Q13422+Q96SW2); assay: as above; assay type: cell-based; conditions: 24 hours treatment, compounds at 50 nM and 500 nM (concentration behind the class not stated)
T2 construct: effects of the compounds of the present disclosure on the expression of target proteins in cells; endogenous in cells; host or cells: human PBMCs (Milecell Biotechnologies)
T2 sequence (Q13422 whole entry): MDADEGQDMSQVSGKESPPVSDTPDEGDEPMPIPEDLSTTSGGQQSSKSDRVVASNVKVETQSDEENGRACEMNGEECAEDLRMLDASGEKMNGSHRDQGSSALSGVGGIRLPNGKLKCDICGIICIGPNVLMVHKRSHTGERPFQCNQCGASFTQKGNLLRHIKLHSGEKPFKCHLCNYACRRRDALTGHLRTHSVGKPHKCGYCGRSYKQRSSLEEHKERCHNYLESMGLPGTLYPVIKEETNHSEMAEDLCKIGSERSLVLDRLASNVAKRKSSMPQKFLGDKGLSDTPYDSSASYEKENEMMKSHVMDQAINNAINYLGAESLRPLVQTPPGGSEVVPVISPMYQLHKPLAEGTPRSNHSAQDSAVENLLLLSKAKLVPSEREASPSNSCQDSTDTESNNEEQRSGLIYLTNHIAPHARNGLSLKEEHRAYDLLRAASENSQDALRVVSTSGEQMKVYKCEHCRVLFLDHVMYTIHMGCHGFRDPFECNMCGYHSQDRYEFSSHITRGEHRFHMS
T2 sequence (Q96SW2 whole entry): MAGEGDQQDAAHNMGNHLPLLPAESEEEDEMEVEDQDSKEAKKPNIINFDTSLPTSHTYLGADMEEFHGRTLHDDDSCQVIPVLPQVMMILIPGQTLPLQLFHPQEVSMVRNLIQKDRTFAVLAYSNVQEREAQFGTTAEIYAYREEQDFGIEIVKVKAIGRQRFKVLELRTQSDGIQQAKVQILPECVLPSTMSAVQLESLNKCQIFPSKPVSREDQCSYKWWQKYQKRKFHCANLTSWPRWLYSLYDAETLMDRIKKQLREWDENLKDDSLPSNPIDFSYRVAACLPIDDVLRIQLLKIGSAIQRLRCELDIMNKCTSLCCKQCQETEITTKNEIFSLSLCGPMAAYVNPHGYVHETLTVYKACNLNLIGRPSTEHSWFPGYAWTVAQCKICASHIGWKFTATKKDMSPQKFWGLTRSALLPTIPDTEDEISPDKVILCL
T2 sequence (Q16531 whole entry partner): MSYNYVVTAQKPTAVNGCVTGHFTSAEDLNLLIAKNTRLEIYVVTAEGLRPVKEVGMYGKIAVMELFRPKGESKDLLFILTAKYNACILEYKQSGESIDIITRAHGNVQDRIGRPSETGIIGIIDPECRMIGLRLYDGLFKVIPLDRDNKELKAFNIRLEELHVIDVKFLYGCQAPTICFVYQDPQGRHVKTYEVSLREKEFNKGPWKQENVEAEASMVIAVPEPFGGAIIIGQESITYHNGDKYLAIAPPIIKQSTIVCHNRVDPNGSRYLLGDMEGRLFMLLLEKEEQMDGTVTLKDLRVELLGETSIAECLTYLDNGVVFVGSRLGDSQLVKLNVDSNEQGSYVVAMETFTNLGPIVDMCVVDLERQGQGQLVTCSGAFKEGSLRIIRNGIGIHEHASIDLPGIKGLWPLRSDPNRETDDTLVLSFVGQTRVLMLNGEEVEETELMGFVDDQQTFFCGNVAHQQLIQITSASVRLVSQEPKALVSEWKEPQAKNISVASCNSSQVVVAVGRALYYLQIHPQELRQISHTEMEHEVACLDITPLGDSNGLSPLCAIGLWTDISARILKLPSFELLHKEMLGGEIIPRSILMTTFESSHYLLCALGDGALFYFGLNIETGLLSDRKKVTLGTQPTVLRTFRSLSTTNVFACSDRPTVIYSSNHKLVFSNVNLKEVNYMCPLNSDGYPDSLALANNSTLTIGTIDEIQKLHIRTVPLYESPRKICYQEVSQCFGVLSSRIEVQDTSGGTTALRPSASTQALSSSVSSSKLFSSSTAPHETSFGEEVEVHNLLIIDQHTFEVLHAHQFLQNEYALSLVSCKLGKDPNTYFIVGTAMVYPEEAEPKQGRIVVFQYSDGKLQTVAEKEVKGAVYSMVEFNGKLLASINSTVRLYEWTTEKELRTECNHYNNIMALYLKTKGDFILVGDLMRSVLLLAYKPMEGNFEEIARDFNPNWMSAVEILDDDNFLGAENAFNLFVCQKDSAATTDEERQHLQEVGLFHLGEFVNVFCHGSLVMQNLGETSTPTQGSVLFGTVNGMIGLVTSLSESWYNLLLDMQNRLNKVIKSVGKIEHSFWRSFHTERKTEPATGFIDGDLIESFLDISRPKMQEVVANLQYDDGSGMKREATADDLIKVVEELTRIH

[3] = molecular target: T3, IKZF2 (Homo sapiens, UniProt Q96SW2+Q9UKS7); assay: as above; assay type: cell-based; conditions: 24 hours treatment, compounds at 50 nM and 500 nM (concentration behind the class not stated)
T3 construct: effects of the compounds of the present disclosure on the expression of target proteins in cells; endogenous in cells; host or cells: human PBMCs (Milecell Biotechnologies)
T3 sequence (Q9UKS7 whole entry): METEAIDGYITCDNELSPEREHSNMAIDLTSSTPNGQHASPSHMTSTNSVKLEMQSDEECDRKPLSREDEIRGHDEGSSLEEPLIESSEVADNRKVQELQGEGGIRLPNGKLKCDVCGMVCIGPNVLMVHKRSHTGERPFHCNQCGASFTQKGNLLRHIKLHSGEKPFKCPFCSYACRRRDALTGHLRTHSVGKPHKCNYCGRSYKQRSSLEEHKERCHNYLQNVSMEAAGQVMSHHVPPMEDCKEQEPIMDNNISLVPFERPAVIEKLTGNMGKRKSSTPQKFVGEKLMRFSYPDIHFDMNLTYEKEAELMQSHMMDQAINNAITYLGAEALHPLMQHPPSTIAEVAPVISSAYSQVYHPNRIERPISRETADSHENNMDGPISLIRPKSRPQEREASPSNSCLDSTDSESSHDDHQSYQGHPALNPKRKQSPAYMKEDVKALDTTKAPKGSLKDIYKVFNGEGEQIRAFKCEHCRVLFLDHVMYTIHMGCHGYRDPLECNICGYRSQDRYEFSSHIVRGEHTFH
T3 sequence (Q96SW2 whole entry): as the sequence (Q96SW2 whole entry) above
T3 sequence (Q16531 whole entry partner): as the sequence (Q16531 whole entry partner) above

[4] = molecular target: T4, IKZF3 (Homo sapiens, UniProt Q96SW2+Q9UKT9); assay: as above; assay type: cell-based; conditions: 24 hours treatment, compounds at 50 nM and 500 nM (concentration behind the class not stated)
T4 construct: effects of the compounds of the present disclosure on the expression of target proteins in cells; endogenous in cells; host or cells: human PBMCs (Milecell Biotechnologies)
T4 sequence (Q9UKT9 whole entry): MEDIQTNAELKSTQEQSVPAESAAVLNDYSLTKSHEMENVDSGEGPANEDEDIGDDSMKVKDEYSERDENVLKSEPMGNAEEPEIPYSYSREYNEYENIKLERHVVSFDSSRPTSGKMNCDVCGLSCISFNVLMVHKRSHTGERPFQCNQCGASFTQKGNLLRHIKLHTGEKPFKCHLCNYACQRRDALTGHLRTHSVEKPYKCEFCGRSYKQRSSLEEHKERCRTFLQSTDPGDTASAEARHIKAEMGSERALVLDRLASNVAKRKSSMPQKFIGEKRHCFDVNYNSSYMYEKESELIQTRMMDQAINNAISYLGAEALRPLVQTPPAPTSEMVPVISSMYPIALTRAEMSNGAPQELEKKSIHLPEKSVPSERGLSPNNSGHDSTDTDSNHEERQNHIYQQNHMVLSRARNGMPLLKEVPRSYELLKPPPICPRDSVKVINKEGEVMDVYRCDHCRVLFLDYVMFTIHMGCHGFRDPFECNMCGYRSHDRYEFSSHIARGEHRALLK
T4 sequence (Q96SW2 whole entry): as the sequence (Q96SW2 whole entry) above
T4 sequence (Q16531 whole entry partner): as the sequence (Q16531 whole entry partner) above

[5] = molecular target: T5, WEE1 (Homo sapiens, UniProt P30291+Q96SW2); assay: as above; assay type: cell-based; conditions: 24 hours treatment, compounds at 50 nM and 500 nM (concentration behind the class not stated)
T5 construct: effects of the compounds of the present disclosure on the expression of target proteins in cells; endogenous in cells; host or cells: human PBMCs (Milecell Biotechnologies)
T5 sequence (P30291 whole entry): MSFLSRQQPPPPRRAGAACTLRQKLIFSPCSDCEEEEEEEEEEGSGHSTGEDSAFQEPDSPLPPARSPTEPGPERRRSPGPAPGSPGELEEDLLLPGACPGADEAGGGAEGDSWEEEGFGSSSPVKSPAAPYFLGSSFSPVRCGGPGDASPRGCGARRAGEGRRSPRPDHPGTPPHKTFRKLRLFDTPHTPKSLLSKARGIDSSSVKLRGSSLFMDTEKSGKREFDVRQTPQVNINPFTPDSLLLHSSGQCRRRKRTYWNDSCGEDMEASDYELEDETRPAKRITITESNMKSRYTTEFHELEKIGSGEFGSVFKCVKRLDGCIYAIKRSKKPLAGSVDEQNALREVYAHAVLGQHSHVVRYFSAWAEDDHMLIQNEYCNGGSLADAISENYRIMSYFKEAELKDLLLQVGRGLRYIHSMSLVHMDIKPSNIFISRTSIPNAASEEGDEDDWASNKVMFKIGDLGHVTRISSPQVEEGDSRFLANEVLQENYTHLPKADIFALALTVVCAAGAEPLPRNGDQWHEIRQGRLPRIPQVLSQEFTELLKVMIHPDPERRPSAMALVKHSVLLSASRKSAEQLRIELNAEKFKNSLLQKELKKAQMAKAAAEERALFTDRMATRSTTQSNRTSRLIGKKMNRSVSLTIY
T5 sequence (Q96SW2 whole entry): as the sequence (Q96SW2 whole entry) above
T5 sequence (Q16531 whole entry partner): as the sequence (Q16531 whole entry partner) above

[6] = tested on: GSPT1; assay: as above; assay type: cell-based, Human; conditions: 24 hours treatment, compounds at 50 nM and 500 nM (concentration behind the class not stated)
[7] = molecular target: T6, human Cereblon WT GST-tagged protein (Homo sapiens, UniProt Q96SW2); assay: CRBN-binding affinity, HTRF (CEREBLON BINDING kit); conditions: for inhibition at 0.5 µM: read-out: Inhibition Rate at 0.5 µM (%); for inhibition at 2 µM: read-out: Inhibition Rate at 2 µM (%)
T6 construct: purchased CISBIO 64BDCRBNPEH
T6 sequence (Q96SW2 whole entry): as the sequence (Q96SW2 whole entry) above

T1 sequence (P48729 whole entry): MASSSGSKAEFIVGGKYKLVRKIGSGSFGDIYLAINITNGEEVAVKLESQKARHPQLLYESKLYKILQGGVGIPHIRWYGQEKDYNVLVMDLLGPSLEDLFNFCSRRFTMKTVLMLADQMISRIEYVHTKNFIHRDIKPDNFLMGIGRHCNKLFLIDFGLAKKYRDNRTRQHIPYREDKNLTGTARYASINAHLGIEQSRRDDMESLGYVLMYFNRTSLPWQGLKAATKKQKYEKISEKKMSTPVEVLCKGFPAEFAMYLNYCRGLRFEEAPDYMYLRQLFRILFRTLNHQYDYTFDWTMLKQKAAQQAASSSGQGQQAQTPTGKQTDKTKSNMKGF
T1 sequence (Q96SW2 whole entry): as the sequence (Q96SW2 whole entry) above
T1 sequence (Q16531 whole entry partner): as the sequence (Q16531 whole entry partner) above

| inhibition at 0.5 µM [7] [%] | inhibition at 2 µM [7] [%] | Structure (SMILES) | CK1α substrate protein remaining % [1] | IKZF 1 substrate protein remaining % [2] | IKZF2 substrate protein remaining % [3] | IKZF3 substrate protein remaining % [4] | Wee1 substrate protein remaining % [5] | GSPT1 substrate protein remaining % [6] |
| --- | --- | --- | --- | --- | --- | --- | --- | --- |
| 60 to 80 | 80 to 100 | Cc1csc2ncnc(C3=CCN(Cc4ccc5c(c4)CN(C4CCC(=O)NC4=O)C5=S)CC3)c12 (centres unmarked) [GT-09315, 3-(5-((4-(5-methylthieno[2,3-d]pyrimidin-4-yl)-3,6-dihydropyridin-1(2H)-yl)methyl)-1-thioxoisoindolin-2-yl)piperidine-2,6-dione] | B (80%< substrate protein remaining %≤ 100%) | A (0% ≤ substrate protein remaining % ≤ 80%) | B (80%< substrate protein remaining %≤ 100%) | A (0% ≤ substrate protein remaining % ≤ 80%) | B (80%< substrate protein remaining %≤ 100%) | A (0% ≤ substrate protein remaining % ≤ 80%) |
| 60 to 80 | 80 to 100 | O=C1CCC(N2Cc3cc(CN4CC=C(c5ncnc6scc(-c7ccccc7)c56)CC4)ccc3C2=S)C(=O)N1 (centres unmarked) [GT-09320, 3-(5-((4-(5-phenylthieno[2,3-d]pyrimidin-4-yl)-3,6-dihydropyridin-1(2H)-yl)methyl)-1-thioxoisoindolin-2-yl)piperidine-2,6-dione] | B (80%< substrate protein remaining %≤ 100%) | B (80%< substrate protein remaining %≤ 100%) | B (80%< substrate protein remaining %≤ 100%) | B (80%< substrate protein remaining %≤ 100%) | A (0% ≤ substrate protein remaining % ≤ 80%) | A (0% ≤ substrate protein remaining % ≤ 80%) |
| 53 to 60 | 80 to 100 | Cc1nc(C2=CCN(Cc3ccc4c(c3)CN(C3CCC(=O)NC3=O)C4=S)CC2)c2c(-c3ccccc3)csc2n1 (centres unmarked) [GT-09321, 3-(5-((4-(2-methyl-5-phenylthieno[2,3-d]pyrimidin-4-yl)-3,6-dihydropyridin-1(2H)-yl)methyl)-1-thioxoisoindolin-2-yl)piperidine-2,6-dione] | B (80%< substrate protein remaining %≤ 100%) | B (80%< substrate protein remaining %≤ 100%) | B (80%< substrate protein remaining %≤ 100%) | B (80%< substrate protein remaining %≤ 100%) | A (0% ≤ substrate protein remaining % ≤ 80%) | A (0% ≤ substrate protein remaining % ≤ 80%) |

The remaining lines, values behind:

| Structure (SMILES) | inhibition at 0.5 µM [7] [%] | inhibition at 2 µM [7] [%] | CK1α substrate protein remaining % [1] | IKZF 1 substrate protein remaining % [2] | IKZF2 substrate protein remaining % [3] | IKZF3 substrate protein remaining % [4] | Wee1 substrate protein remaining % [5] | GSPT1 substrate protein remaining % [6] |
| --- | --- | --- | --- | --- | --- | --- | --- | --- |
| O=C1CCC(N2Cc3cc(CN4CCN(c5ncnc6sc7c(c56)CCC7)CC4)ccc3C2=S)C(=O)N1 (centres unmarked) [GT-09301, 3-(5-((4-(6,7-dihydro-5H-cyclopenta[4,5]thieno[2,3-d]pyrimidin-4-yl)piperazin-1-yl)methyl)-1-thioxoisoindolin-2-yl)piperidine-2,6-dione] | 60 to 80 | 80 to 100 | B (80%< substrate protein remaining %≤ 100%) | A (0% ≤ substrate protein remaining % ≤ 80%) | A (0% ≤ substrate protein remaining % ≤ 80%) | A (0% ≤ substrate protein remaining % ≤ 80%) | B (80%< substrate protein remaining %≤ 100%) | B (80%< substrate protein remaining %≤ 100%) |
| O=C1CCC(N2Cc3cc(CN4CCC(c5ncnc6scc(-c7ccccc7)c56)CC4)ccc3C2=S)C(=O)N1 (centres unmarked) [GT-09307, 3-(5-((4-(5-phenylthieno[2,3-d]pyrimidin-4-yl)piperidin-1-yl)methyl)-1-thioxoisoindolin-2-yl)piperidine-2,6-dione] | 60 to 80 | 80 to 100 | A (0% ≤ substrate protein remaining % ≤ 80%) | A (0% ≤ substrate protein remaining % ≤ 80%) | B (80%< substrate protein remaining %≤ 100%) | A (0% ≤ substrate protein remaining % ≤ 80%) | A (0% ≤ substrate protein remaining % ≤ 80%) | A (0% ≤ substrate protein remaining % ≤ 80%) |
| Cc1nc(C2CCN(Cc3ccc4c(c3)CN(C3CCC(=O)NC3=O)C4=S)CC2)c2ccsc2n1 (centres unmarked) [GT-09309, 3-(5-((4-(2-methylthieno[2,3-d]pyrimidin-4-yl)piperidin-1-yl)methyl)-1-thioxoisoindolin-2-yl)piperidine-2,6-dione] | 60 to 80 | 80 to 100 | B (80%< substrate protein remaining %≤ 100%) | B (80%< substrate protein remaining %≤ 100%) | B (80%< substrate protein remaining %≤ 100%) | B (80%< substrate protein remaining %≤ 100%) | B (80%< substrate protein remaining %≤ 100%) | A (0% ≤ substrate protein remaining % ≤ 80%) |
| Cc1nc(C2CCN(Cc3ccc4c(c3)CN(C3CCC(=O)NC3=O)C4=S)CC2)c2c3c(sc2n1)CCCC3 (centres unmarked) [GT-09310, 3-(5-((4-(2-methyl-5,6,7,8-tetrahydrobenzo[4,5]thieno[2,3-d]pyrimidin-4-yl)piperidin-1-yl)methyl)-1-thioxoisoindolin-2-yl)piperidine-2,6-dione] | 53 to 60 | 80 to 100 | B (80%< substrate protein remaining %≤ 100%) | B (80%< substrate protein remaining %≤ 100%) | B (80%< substrate protein remaining %≤ 100%) | A (0% ≤ substrate protein remaining % ≤ 80%) | B (80%< substrate protein remaining %≤ 100%) | A (0% ≤ substrate protein remaining % ≤ 80%) |
| O=C1CCC(N2Cc3cc(CN4CCC(c5ncnc6sc7c(c56)CCC7)CC4)ccc3C2=S)C(=O)N1 (centres unmarked) [GT-09311, 3-(5-((4-(6,7-dihydro-5H-cyclopenta[4,5]thieno[2,3-d]pyrimidin-4-yl)piperidin-1-yl)methyl)-1-thioxoisoindolin-2-yl)piperidine-2,6-dione] | 60 to 80 | 80 to 100 | B (80%< substrate protein remaining %≤ 100%) | A (0% ≤ substrate protein remaining % ≤ 80%) | B (80%< substrate protein remaining %≤ 100%) | A (0% ≤ substrate protein remaining % ≤ 80%) | A (0% ≤ substrate protein remaining % ≤ 80%) | A (0% ≤ substrate protein remaining % ≤ 80%) |
| Cc1nc(C2CCN(Cc3ccc4c(c3)CN(C3CCC(=O)NC3=O)C4=S)CC2)c2c3c(sc2n1)CCC3 (centres unmarked) [GT-09312, 3-(5-((4-(2-methyl-6,7-dihydro-5H-cyclopenta[4,5]thieno[2,3-d]pyrimidin-4-yl)piperidin-1-yl)methyl)-1-thioxoisoindolin-2-yl)piperidine-2,6-dione] | 60 to 80 | 80 to 100 | B (80%< substrate protein remaining %≤ 100%) | B (80%< substrate protein remaining %≤ 100%) | B (80%< substrate protein remaining %≤ 100%) | A (0% ≤ substrate protein remaining % ≤ 80%) | B (80%< substrate protein remaining %≤ 100%) | A (0% ≤ substrate protein remaining % ≤ 80%) |
| O=C1CCC(N2Cc3cc(CN4CCC(c5ncc6ccsc6n5)CC4)ccc3C2=S)C(=O)N1 (centres unmarked) [GT-09313, 3-(5-((4-(thieno[2,3-d]pyrimidin-2-yl)piperidin-1-yl)methyl)-1-thioxoisoindolin-2-yl)piperidine-2,6-dione] | 60 to 80 | 80 to 100 | B (80%< substrate protein remaining %≤ 100%) | A (0% ≤ substrate protein remaining % ≤ 80%) | B (80%< substrate protein remaining %≤ 100%) | B (80%< substrate protein remaining %≤ 100%) | B (80%< substrate protein remaining %≤ 100%) | A (0% ≤ substrate protein remaining % ≤ 80%) |

From EP4745135A1 (Gluetacs Therapeutics (Shanghai) Co., Ltd., priority 2023, dated 2025)
